Laboratory results from PubChem BioAssay AID2765 (Broad Institute, 2010).
Calls of active or inactive are those of the source.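 How the source made its calls: active means half-maximal concentration for the rise in caspase light signal at or below ten times the top tested dose; inconclusive means flat fit between 30% and 70% activity, or unreliable curve fit; inactive means the rest.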

System: MEF A1-2A-BIM cells, caspase 3/7 luminescence, 3 h
Test: inducers of caspase signal in A1-dependent MEFs – cell-based, luminescence, retest, A1 inhibitor project, dose response (AID 2765)

| SMILES | EC50 |
| --- | --- |
| O=C(N/N=C/c1ccc(Cl)cc1Cl)c1ccc2nc[nH]c2c1 | > 35 µM (inactive) |
| CCOC(=O)/C(=C\c1ccc([N+](=O)[O-])cc1)C(=O)c1cc(C(C)=O)c(Nc2ccccc2)s1 | 1.9 µM |
| Nc1nc(Cl)nc2c1ncn2[C@H]1C[C@H](O)[C@@H](CO)O1 | > 35 µM (inactive) |
| O=C(COC(=O)/C=C/c1cccc(Cl)c1Cl)Nc1ccc2[nH]c(=O)[nH]c2c1 | > 35 µM (inactive) |
| Cc1ccc(C(=O)/C=C/C(=O)c2ccc(C)cc2)cc1 | 19.4 µM |
| Nc1nc(F)nc2c1ncn2[C@@H]1O[C@H](CO)[C@@H](O)[C@H]1O | > 35 µM (inactive) |
| NS(=O)(=O)c1ccc(S(=O)(=O)c2ccccc2)nc1 | > 35 µM (inactive) |
| CCNC(=O)CN(c1ccc(Br)c(C)c1)S(C)(=O)=O | > 35 µM (inactive) |
| Cc1ccccc1S(=O)(=O)N(CC(O)CN1CCCCC1)c1ccccc1 (stereo unspecified) | > 35 µM (inactive) |
| Cc1ccc(C(C(=O)NCc2ccco2)N(C(=O)Cc2cccs2)c2cccnc2)cc1 (stereo unspecified) | > 35 µM (inactive) |
| OC(Cn1cncn1)(Cn1cncn1)c1ccc(F)cc1F | > 35 µM (inactive) |
| CCOc1ccc(Nc2cc(C)nc3nc(C)nn23)cc1 | > 35 µM (inactive) |
| COc1ccc(S(=O)(=O)Nc2c(C)n(C)n(-c3ccccc3)c2=O)cc1 | > 35 µM (inactive) |
| CCc1ccccc1NC(=O)CN(C)C(=O)Cn1ncc(Cl)c(Cl)c1=O | > 35 µM (inactive) |
| C=CCn1c(SCC(=O)NC2CC2)nnc1-c1ccccn1 | > 35 µM (inactive) |
| CCOC(=O)[C@H]1[C@H]2COc3cc(OC)ccc3[C@@H]2N2C(=O)c3ccc(C)cc3NC(=O)[C@@]12C | > 35 µM (inactive) |
| CCOC(=O)/C=c1\s/c(=C\c2ccc(C(=O)OC)cc2)c(=O)n1CC(=O)Nc1ccccc1 | > 35 µM (inactive) |
| Cc1ccc(-c2noc(CSc3nnc(CCc4ccccc4)n3-c3ccccc3)n2)cc1 | > 35 µM (inactive) |
| NC(=O)c1ccc[n+](CC(=O)NCc2ccc(Cl)cc2)c1 | > 35 µM (inactive) |
| CC(Oc1ccccc1)C(=O)N1CCN=C1SCc1ccccc1 (stereo unspecified) | > 35 µM (inactive) |
| O=C1C2CCCN2C(c2cccc(Br)c2)N1c1ccc(F)cc1 (stereo unspecified) | > 35 µM (inactive) |
| COc1ccc(OC)c(CNc2ccc([N+](=O)[O-])cc2C)c1 | > 35 µM (inactive) |
| COc1cc(-c2nnc(NC(=O)CCS(=O)(=O)c3ccc(F)cc3)o2)cc(OC)c1OC | > 35 µM (inactive) |
| CCOC(=O)C(=Cc1ccc(OCc2ccc([N+](=O)[O-])cc2)c(OC)c1)C(=O)OCC | > 35 µM (inactive) |

| SMILES | EC50 |
| --- | --- |
| N#Cc1c(C(F)(F)F)cc(-c2ccccc2)nc1SCC(=O)Nc1sc2c(c1C#N)CCC2 | > 35 µM (inactive) |
| CCOc1ccc2nc(NCCNC(=O)Nc3cccc(C)c3)c(C#N)cc2c1 | 35.7 µM |
| Cc1cc(NC(=O)COC(=O)C2=NN(c3ccccc3)C(=O)CC2)c([N+](=O)[O-])cc1C | > 35 µM (inactive) |
| Cc1ccc(S(=O)(=O)NCC(=O)OC2CCOC2=O)cc1 (stereo unspecified) | > 35 µM (inactive) |
| Cc1noc(NS(=O)(=O)c2ccc(NC(=O)c3ccccc3NS(=O)(=O)c3ccc(F)cc3)cc2)c1C | > 35 µM (inactive) |
| COc1ccc(C(=O)COC(=O)CNS(=O)(=O)c2ccc(C)cc2)cc1 | > 35 µM (inactive) |
| CC(C)[C@H](NC(=O)[C@@H]1Cc2ccccc2CN1C(=O)OC(C)(C)C)C(=O)NC1CCCC1 | > 35 µM (inactive) |
| COc1ccc([C@H]2CC(=O)C=C(c3ccccc3C(F)(F)F)C2)cc1 | > 35 µM (inactive) |
| C=C1C(=O)O[C@H]2C[C@@H](C)[C@@H]3C=CC(=O)[C@@]3(C)C[C@H]12 | > 35 µM (inactive) |
| CC(C)C(OC(=O)c1cc2c(s1)CCCCC2)C(=O)NC(N)=O (stereo unspecified) | > 35 µM (inactive) |
| NC(=O)CCSC(=S)N1CCOCC1 | > 35 µM (inactive) |
| COc1cccc(C(=O)C(C#N)=C(SC)SC)c1 | > 35 µM (inactive) |
| O=C(N/N=C/c1ccc(N2CCCCC2)o1)c1ccccc1[N+](=O)[O-] | > 35 µM (inactive) |
| Cc1cccc[n+]1CC(=O)c1ccccc1 | > 35 µM (inactive) |
| CC(=O)Nc1ccc(S(=O)(=O)N2CCCC3CCCCC32)cc1 (stereo unspecified) | > 35 µM (inactive) |
| CCCCNC(=S)N/N=C/c1ccc(OCC(=O)Nc2c(C)cc(C)cc2C)c(OC)c1 | > 35 µM (inactive) |
| CC/C(=C1/C(=O)CC(C)(C)C(C(=O)OC)C1=O)N1CCCC1 (stereo unspecified) | > 35 µM (inactive) |
| COc1ccc(CN2CCN(Cc3cc4ccccc4o3)CC2CCO)c(F)c1 (stereo unspecified) | > 35 µM (inactive) |
| Cc1ccc(NC(=O)CSc2nc3ccc(Nc4nc(N5CCOCC5)nc(N5CCOCC5)n4)cc3s2)cc1 | 14.9 µM |
| COC(=O)Cc1csc(/N=C/c2c(O)n(-c3cccc(C(F)(F)F)c3)c(=O)c3ccccc23)n1 | 5.7 µM |
| CS(=O)(=O)Nc1ccc(C2=NN(S(C)(=O)=O)C(c3ccccc3)C2)cc1 (stereo unspecified) | > 35 µM (inactive) |
| CCC(Sc1ncccc1Nc1ccccn1)C(=O)O (stereo unspecified) | > 35 µM (inactive) |
| CCn1c(Cl)c(C=O)s/c1=N\S(=O)(=O)c1ccccc1 | > 35 µM (inactive) |
| COC(=O)C[C@H]1c2ccccc2S(=O)(=O)N1c1cccc(OC)c1 | > 35 µM (inactive) |

| SMILES | EC50 |
| --- | --- |
| Cc1noc(C)c1S(=O)(=O)N(C)C[C@H]1Oc2ccc(NC(=O)CCC(F)(F)F)cc2C(=O)N([C@H](C)CO)C[C@@H]1C | > 35 µM (inactive) |
| Cc1ccc(C=C2C(Cl)=C(Cl)C(Cl)=C2Cl)cc1 | 7.19 µM |
| CCc1cccc(N(CC(=O)NCc2ccc(F)cc2)C(=O)c2csnn2)c1 | > 35 µM (inactive) |
| CCN(CC)S(=O)(=O)c1cc(NC(=O)C2Cc3ccccc3C(=O)O2)ccc1C (stereo unspecified) | > 35 µM (inactive) |
| Cc1ccc(NC(=O)COC(=O)CCc2c(C)nc3ncnn3c2C)cc1C | > 35 µM (inactive) |
| Cc1cccc2c3c([nH]c12)CCN(C)C3 | > 35 µM (inactive) |
| CCS(=O)(=O)c1nc2ccccc2n1Cc1ccccc1Cl | > 35 µM (inactive) |
| COc1ccc(OC)c(NC(=O)CSc2nnc(CNC(=O)COc3ccc(Cl)cc3)o2)c1 | > 35 µM (inactive) |
| Cc1nc(NN)c2c3c(sc2n1)COC(C)(C)C3 | > 35 µM (inactive) |
| CCc1cccc(CC)c1NC(=O)C1CSC2(C)CCC(=O)N12 (stereo unspecified) | > 35 µM (inactive) |
| N#CCn1nnc(-c2ccc3c(c2)OCO3)n1 | > 35 µM (inactive) |
| Cc1c(C(c2ccccc2O)c2c(C)n(C)n(-c3ccccc3)c2=O)c(=O)n(-c2ccccc2)n1C | > 35 µM (inactive) |
| Cc1noc(C)c1COc1ccc(C(=O)OC(C)C(=O)Nc2ccc(N3CCOCC3)cc2)cc1 (stereo unspecified) | > 35 µM (inactive) |
| N#Cc1ccc(S(=O)(=O)N2CCC(N3CCCCC3)CC2)cc1 | > 35 µM (inactive) |
| CN1CCN(CCCNC(=O)c2ccc3c(Cl)c4c(nc3c2)CCCC4)CC1 | > 35 µM (inactive) |
| O=C(Nc1ccc(Br)cc1C(=O)O)c1ccc2c(c1)C(=O)N(Cc1ccccc1)C2=O | > 35 µM (inactive) |
| CCOc1ccc(-n2c(SCC(=O)Nc3ccc(Br)cc3)nc3n[nH]c(C)c3c2=N)cc1 | 21.6 µM |
| CCN(CC)CCCNC(=S)N1CCC(c2nc3ccccc3[nH]2)CC1 | > 35 µM (inactive) |
| Clc1ccc(C(Cn2ccnc2)OCc2c(Cl)cccc2Cl)c(Cl)c1 (stereo unspecified) | > 35 µM (inactive) |
| CC(C(=O)N(C)c1ccccc1)N1CCN(C(=O)c2ccccc2)CC1 (stereo unspecified) | > 35 µM (inactive) |
| COc1cc(C(=O)Nc2cc(-c3ccccc3)[nH]n2)cc(OC)c1OC | > 35 µM (inactive) |
| CCc1ccc(Nc2n[n+](-c3ccccc3)c(/C=C/c3ccccc3)s2)cc1 | 10.9 µM |
| CC(C)[C@H]1CN=C2N(CCNC(=O)CCC3CCCCC3)[C@H](Cc3ccc(O)cc3)CN21 | > 35 µM (inactive) |
| O=Cc1cccc(OC(=O)c2ccc(Cl)cc2Cl)c1 | > 35 µM (inactive) |

| SMILES | EC50 |
| --- | --- |
| Cc1cc(Nc2ccc(Cl)cc2)n2ncnc2n1 | > 35 µM (inactive) |
| COc1cccc(-n2nnnc2S(C)(=O)=O)c1 | > 35 µM (inactive) |
| O=C(Nc1ccc([N+](=O)[O-])cn1)c1cc(-c2cccc(Br)c2)nc2ccccc12 | > 35 µM (inactive) |
| CCN1CCN(CC(=O)Nc2cc(F)ccc2C)CC1 | > 35 µM (inactive) |
| COc1cc2c(c(OC)c1OC)-c1ccc(O)c(=O)cc1C(NC(C)=O)CC2 (stereo unspecified) | > 35 µM (inactive) |
| COc1ccc(C(=O)COC(=O)Cn2[nH]c(=O)c3ccccc3c2=O)c(OC)c1 | > 35 µM (inactive) |
| O=C(OCn1ncc(Cl)c(Cl)c1=O)c1cccc(C(F)(F)F)c1 | > 35 µM (inactive) |
| O=C(O)/C=C/C(=O)Nc1ccc(OC(F)F)cc1 | > 35 µM (inactive) |
| CC1=NOC(=O)/C1=C\c1ccc(-c2cccc(Cl)c2)o1 | > 35 µM (inactive) |
| NCC1CCC(C(=O)Oc2ccc(CCC(=O)O)cc2)CC1 (stereo unspecified) | > 35 µM (inactive) |
| CC(C)(C)CC(=O)Nc1nnc(SCC(=O)NC2CCCCC2)s1 | > 35 µM (inactive) |
| Clc1nc(NCc2ccco2)nc(N2CCCCC2)n1 | > 35 µM (inactive) |
| COc1cc(NC(=O)c2nn(C)c3c2CS(=O)(=O)c2ccccc2-3)cc(OC)c1 | > 35 µM (inactive) |
| Cc1noc(C)c1CSCC(=O)N(C)CC(=O)Nc1ccc(Cl)c(Cl)c1 | > 35 µM (inactive) |
| O=C(CCCCl)NC(=S)Nc1ccc(CN2CCOCC2)cc1 | > 35 µM (inactive) |
| COc1ccccc1C(=O)NC(=O)COC(=O)CCS(=O)(=O)c1ccc(C)cc1 | > 35 µM (inactive) |
| CC(c1ccccc1)n1c(CCCO)nc2ccccc21 (stereo unspecified) | > 35 µM (inactive) |
| O=C(CCC1N=C2c3ccccc3N=C(SCC(=O)NCC3CCCO3)N2C1=O)NCc1ccc(F)cc1 (stereo unspecified) | > 35 µM (inactive) |
| Cc1ccc(Sc2ncccc2C(=O)NCc2cc([N+](=O)[O-])ccc2O)cc1C | > 35 µM (inactive) |
| CCOC(=O)C(C(=O)OCC)c1cc(Br)c2noc3c2c1C(=O)c1ccccc1-3 | > 35 µM (inactive) |
| O=C1/C(=C\c2c(NCCOCCO)nc3ccccn3c2=O)SC(=S)N1Cc1ccco1 | > 35 µM (inactive) |
| O=C(NCNC(=O)NC1C(=O)NC(=O)N1CO)NC1C(=O)NC(=O)N1CO (stereo unspecified) | > 35 µM (inactive) |
| CCCCN1C(=O)C(NC(C)=O)c2cc(Br)ccc21 (stereo unspecified) | > 35 µM (inactive) |
| O=C(NC1CCCc2ccccc21)c1ccccc1OC(F)F (stereo unspecified) | > 35 µM (inactive) |
